A word on the Ki: it is a dissociation constant, usually derived from enzyme kinetics or from competition with a known ligand.

Bounds are passed on as bounds.

The assay has as its target T1, human α-thrombin (Homo sapiens, UniProt P00734).
T1 construct: Assays of human α-thrombin
Put plainly: In vitro assay for determining proteinase inhibition (human α-thrombin). It counts as biochemical. The note with it: 25° C., 0.05M TRIS buffer pH 7.4, 0.15M NaCl, 0.1% PEG; sar-PR-pna or Z-GPR-afc substrate. How it is done:
In vitro assay for determining proteinase inhibition
Assays of human α-thrombin and human trypsin were performed at 25° C. in 0.05M TRIS buffer pH 7.4, 0.15M NaCl, 0.1% PEG. Trypsin assays also contained 1 mM CaCl2.
In assays wherein rates of hydrolysis of a p-nitroanilide (pna) substrate were determined, a Thermomax 96-well plate reader was used to measure (at 405 nm) the time dependent appearance of p-nitroaniline. sar-PR-pna (sarcosine-Pro-Arg-p-nitroanilide) was used to assay human α-thrombin (Km =125 μM) and human trypsin (Km =59 μM). p-Nitroanilide substrate concentration was determined from measurements of absorbance at 342 nm using an extinction coefficient of 8270 cm^-1 M^-1.
In certain studies with potent inhibitors (Ki <10 nM) where the degree of inhibition of thrombin was high, a more sensitive activity assay was employed. In this assay the rate of thrombin catalyzed hydrolysis of the fluorogenic substrate Z-GPR-afc (Cbz-Gly-Pro-Arg-7-amino-4-trifluoromethylcoumarin) (Km =27 μM) was determined from the increase in fluorescence at 500 nm (excitation at 400 nm) associated with production of 7-amino-4-trifluoromethyl coumarin. Concentrations of stock solutions of Z-GPR-afc were determined from measurements of absorbance at 380 nm of the 7-amino-4-trifluoromethyl coumarin produced upon complete hydrolysis of an aliquot of the stock solution by thrombin.
Activity assays were performed by diluting a stock solution of substrate at least tenfold to a final concentration 0.5 Km into a solution containing enzyme or enzyme equilibrated with inhibitor. Times required to achieve equilibration between enzyme and inhibitor were determined in control experiments. Initial velocities of product formation in the absence (Vo) or presence of inhibitor (Vi) were measured. Assuming competitive inhibition, and that unity is negligible compared Km /[S], […] (where [S], [I], and e respectively represent the total concentrations, of substrate, inhibitor and enzyme), the equilibrium constant (Ki) for dissociation of the inhibitor from the enzyme can be obtained from the dependence of Vo /Vi on [I] shown in equation 1.
Compound `Cc1nc(N)ccc1CNC(=O)Cn1c(C)cc2c(c1=O)NC(=O)[C@H](CC1CC1)N2` registered a Ki of less than 1 nM.

`Cc1cc2c(c(=O)n1CC(=O)NCc1cc(Cl)ccc1OCC(=O)NC1CC1)NC(=O)[C@H](Cc1ccccc1)N2` registered an inhibitory constant (Ki) of less than 1 nM.

In turn, `Cc1nc(N)ccc1CNC(=O)Cn1c(C)cc2c(c1=O)NC(=O)[C@H](Cc1ccccc1)N2` gave a Ki of less than 1 nM.

`Cc1nc(N)ccc1CNC(=O)Cn1c(C)cc2c(c1=O)NC(=O)[C@@H]1CCCCN21` had an inhibition constant (Ki) greater than 1 nM.

The compound `Cc1nc(N)ccc1CNC(=O)Cn1c(C)cc2c(c1=O)NC(=O)CN2Cc1ccccc1` registered a Ki greater than 1 nM.

For the compound `Cc1nc(N)ccc1CNC(=O)Cn1c(C)cc2c(c1=O)NC(=O)[C@H](CC1CC1)N2C`, the Ki is less than 1 nM.

Consider `Cc1cc2c(c(=O)n1CC(=O)NCc1ccc(N)nc1)NC(=O)[C@H](CC1CC1)N2C`, for which the Ki is less than 1 nM.

For `Cc1cc2c(c(=O)n1CC(=O)NCc1ccccc1OCC(=O)NC1CC1)NC(=O)[C@H](CC1CC1)N2C`, the Ki was less than 1 nM.
